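Grown in 96-well plates, cells were treated for 48 hours with each compound at five concentrations. Insufficient inhibition: endpoint recorded as highest concentration tested. GI50 is the concentration that inhibits growth by half. The concentration for full growth arrest is given as TGI.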
Assays:
Assay in all cases: NCI-60 cell line screen, 48 h; in the data active = GI50 below about 0.43 µM; inactive = the rest
[1] = system: CCRF-CEM leukemia
[2] = system: NCI-H226 lung
[3] = system: HL-60(TB) leukemia
[4] = system: SNB-19 CNS
[5] = system: KM12 colon
[6] = system: COLO 205 colon
[7] = system: SF-539 CNS
[8] = system: HCT-116 colon
[9] = system: MDA-MB-435
[10] = system: SK-MEL-5 melanoma
[11] = system: UO-31 renal
[12] = system: OVCAR-8 ovarian
[13] = system: NCI-H522 lung
[14] = system: SNB-75 CNS
[15] = system: SK-MEL-2 melanoma
[16] = system: SF-295 CNS
[17] = system: SK-MEL-28 melanoma
[18] = system: SF-268 CNS
[19] = system: HOP-62 NSCLC
[20] = system: NCI-H460 lung
[21] = system: OVCAR-4 ovarian
[22] = system: EKVX NSCLC
[23] = system: DU-145 prostate
[24] = system: BT-549 breast
[25] = system: OVCAR-3 ovarian
[26] = system: MALME-3M melanoma
[27] = system: U251 CNS
[28] = system: HOP-92 NSCLC
[29] = system: A549 NSCLC
[30] = system: MDA-MB-231 breast
[31] = system: SK-OV-3 ovarian
[32] = system: SN12C renal
[33] = system: TK-10 renal
[34] = system: HS 578T breast
[35] = system: LOX IMVI melanoma
[36] = system: IGROV1 ovarian
[37] = system: RXF 393 renal
[38] = system: HT29 colon
[39] = system: M14 melanoma
[40] = system: A498 renal
[41] = system: ACHN renal
[42] = system: SW-620 colon
[43] = system: PC-3 prostate
[44] = system: MCF7 breast
[45] = system: CAKI-1 renal
[46] = system: UACC-257 melanoma
[47] = system: 786-0 renal
[48] = system: UACC-62 melanoma
[49] = system: HCT-15 colon
[50] = system: T-47D breast
[51] = system: MOLT-4 leukemia
[52] = system: SR leukemia
[53] = system: RPMI-8226 leukemia
[54] = system: OVCAR-5 ovarian
[55] = system: NCI/ADR-RES ovarian
[56] = system: NCI-H23 lung
[57] = system: HCC-2998 colon

Oc1c(Cl)c(Cl)c(Cl)c(Cl)c1Cl
36.9 µM: TGI [3]
48.3 µM: TGI [1]
56.9 µM: TGI [2]

CCN(CCO)CCCC(C)Nc1ccnc2cc(Cl)ccc12 (configuration not stated)
47.6 µM: TGI [3]
inactive: GI50 [4] > 100 µM | GI50 [5] > 100 µM | GI50 [6] > 100 µM | GI50 [7] 8.63 µM | GI50 [8] > 100 µM | GI50 [9] > 100 µM | GI50 [10] > 100 µM | GI50 [11] > 100 µM | GI50 [12] > 100 µM | GI50 [13] > 100 µM | GI50 [14] > 100 µM | GI50 [15] > 100 µM | GI50 [16] > 100 µM | GI50 [17] > 100 µM | GI50 [18] > 100 µM | GI50 [19] > 100 µM | GI50 [20] > 100 µM | GI50 [21] > 100 µM | GI50 [1] > 100 µM | GI50 [22] > 100 µM | GI50 [23] > 100 µM | GI50 [24] > 100 µM | GI50 [25] > 100 µM | GI50 [26] > 100 µM | GI50 [27] > 100 µM | GI50 [28] > 100 µM | GI50 [29] > 100 µM | GI50 [30] > 100 µM | GI50 [31] > 100 µM | GI50 [32] > 100 µM | GI50 [33] > 100 µM | GI50 [34] > 100 µM | GI50 [35] > 100 µM | GI50 [36] > 100 µM | GI50 [37] 73.8 µM | GI50 [38] > 100 µM | GI50 [39] > 100 µM | GI50 [40] > 100 µM | GI50 [41] > 100 µM | GI50 [42] > 100 µM | GI50 [2] > 100 µM | GI50 [43] > 100 µM | GI50 [44] > 100 µM | GI50 [3] 13.3 µM | GI50 [45] > 100 µM | GI50 [46] > 100 µM | GI50 [47] > 100 µM | GI50 [48] > 100 µM | GI50 [49] > 100 µM | GI50 [50] > 100 µM
> 100 µM: TGI [4] | TGI [5] | TGI [6] | TGI [7] | TGI [8] | TGI [9] | TGI [10] | TGI [11] | TGI [12] | TGI [13] | TGI [14] | TGI [15] | TGI [16] | TGI [17] | TGI [18] | TGI [19] | TGI [20] | TGI [21] | TGI [1] | TGI [22] | TGI [23] | TGI [24] | TGI [25] | TGI [26] | TGI [27] | TGI [28] | TGI [29] | TGI [30] | TGI [31] | TGI [32] | TGI [33] | TGI [34] | TGI [35] | TGI [36] | TGI [37] | TGI [38] | TGI [39] | TGI [40] | TGI [41] | TGI [42] | TGI [2] | TGI [43] | TGI [44] | TGI [45] | TGI [46] | TGI [47] | TGI [48] | TGI [49] | TGI [50]

CCOC(=O)C(NC(=O)c1cccc(Cl)c1)(Nc1ccc(S(=O)(=O)Nc2cc(C)nc(C)n2)cc1)C(F)(F)F (configuration not stated)
> 100 µM: TGI [4] | TGI [5] | TGI [6] | TGI [7] | TGI [8] | TGI [51] | TGI [9] | TGI [10] | TGI [11] | TGI [12] | TGI [13] | TGI [14] | TGI [15] | TGI [52] | TGI [16] | TGI [17] | TGI [18] | TGI [19] | TGI [20] | TGI [21] | TGI [1] | TGI [22] | TGI [23] | TGI [25] | TGI [53] | TGI [26] | TGI [27] | TGI [28] | TGI [29] | TGI [30] | TGI [31] | TGI [32] | TGI [33] | TGI [34] | TGI [35] | TGI [36] | TGI [38] | TGI [39] | TGI [40] | TGI [54] | TGI [41] | TGI [42] | TGI [55] | TGI [56] | TGI [2] | TGI [43] | TGI [44] | TGI [3] | TGI [45] | TGI [46] | TGI [47] | TGI [57] | TGI [49] | TGI [50]

— PubChem BioAssay (NCI)
